Source: US20260193249A1, “PREPARATION OF PYRAZOLOPYRIDINE AND TRIAZOLOPYRIDINE DERIVATIVES AS NOVEL DIACYLGLYCERIDE O-ACYLTRANSFERASE 2 INHIBITORS” (Merck Sharp & Dohme LLC, priority 2022, published 2026)

These molecules were tested against T1, human DGAT2 (Homo sapiens, UniProt Q96PD7) (assay: DGAT2 Enzymatic Activity Assay). Details: membrane prep of Sf-9 insect cells expressing hDGAT2; 13C18-triolein product by LC/MS/MS; 25 μM diolein, 5 μM 13C oleoyl-CoA.
T1 construct: made in house; host or cells: Sf-9 insect cells (baculovirus), membrane fraction
T1 sequence (Q96PD7 1-388): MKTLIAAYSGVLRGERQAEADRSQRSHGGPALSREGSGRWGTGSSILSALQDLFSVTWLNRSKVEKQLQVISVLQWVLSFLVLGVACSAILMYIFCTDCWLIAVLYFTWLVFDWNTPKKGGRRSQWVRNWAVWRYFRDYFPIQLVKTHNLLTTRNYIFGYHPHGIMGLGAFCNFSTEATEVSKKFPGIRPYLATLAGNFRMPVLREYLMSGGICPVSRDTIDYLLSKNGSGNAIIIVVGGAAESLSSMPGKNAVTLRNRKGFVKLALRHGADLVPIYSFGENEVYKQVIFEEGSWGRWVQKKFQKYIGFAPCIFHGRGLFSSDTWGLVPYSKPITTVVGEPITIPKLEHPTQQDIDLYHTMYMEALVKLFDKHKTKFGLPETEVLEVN
Assay type: biochemical
Procedure: Sf-9 insect cells were maintained in Grace's insect cell culture medium with 10% heated-inactivated fetal bovine serum, 1% Pluronic F-68 and 0.14 μg/ml Kanamycine sulfate at 27° C. in a shaker incubator. After infection with untagged baculovirus expressing human DGAT2 (hDGAT2) at multiplicity of infection (MOI) 3 for 48 hours, cells were harvested. Cell pellets were suspended in buffer containing 10 mM Tris-HCl pH 7.5, 1 mM EDTA, 250 mM sucrose and Complete Protease Inhibitor Cocktail (Sigma Aldrich), and sonicated on ice. Cell debris were removed by centrifugation at 2000×g for 15 minutes. Membrane fractions were isolated by ultracentrifugation (100,000×g), resuspended in the same buffer, and frozen (−80° C.) for later use. The protein concentration was determined with the Pierce™ BCA Protein Assay Kit (Thermo Fisher Scientific).
LC/MS/MS analyses were performed using Thermal Fisher's LX4-TSQ Vantage system. This system consists of an Agilent binary high-performance liquid chromatography (HPLC) pump and a TSQ Vantage triple quadrupole MS/MS instrument. For each sample, 2 μL samples from the top organic layer of in-plate liquid-liquid extraction were injected onto a Thermo Betabasic C4 column (2.1 mm×20 mm, 5 μm particle size). The samples were then eluted using the following conditions; mobile phase: Isopropanol:acetonitrile/10 mM ammonium formate=50/35/15 (v/v/v), flow rate: 0.8 mL/min, temperature: 25° C. Data was acquired in positive mode using a heated electrospray ionization (HESI) interface. […] The peak area was integrated by Xcalibur Quan software. The ratio between the ^13C18triolein generated in the reaction and spiked in internal standard ^13C21-triolein was used to generate percentage inhibition and IC50 values. Compound percentage inhibition was calculated by the following formula: Inhibition %=1−[(compound response−low control)/(high control−low control)]×100%.
DGAT2 activity was determined by measuring the amount of enzymatic product ^13C18-triolein (^13C-1,2,3-Tri(cis-9-octadecenoyl)glycerol) using the membrane prep mentioned above. The assay was carried out in ABgene 384-well assay plates in a final volume of 25 μL at rt.

| SMILES | IC50 [nM] |
| --- | --- |
| CCc1c(C(=O)NC2(C)CCS(=O)(=O)CC2)nn2ccc(Oc3ncccc3OCC(F)(F)F)cc12 [Example 46, 3-Ethyl-N-(4-methyl-1,1-dioxidotetrahydro-2H-thiopyran-4-yl)-5-((3-(2,2,2-trifluoroethoxy)pyridin-2-yl)oxy)pyrazolo[1,5-a]pyridine-2-carboxamide] | 17 |
| CCc1c(C(=O)NC2(C)CS(=O)(=O)C2)nn2ccc(Oc3ncccc3OCC(F)(F)F)cc12 [Example 47, 3-Ethyl-N-(3-methyl-1,1-dioxidothietan-3-yl)-5-((3-(2,2,2-trifluoroethoxy)pyridin-2-yl)oxy)pyrazolo[1,5-a]pyridine-2-carboxamide] | 257 |
| CC(C)c1c(C(=O)NC2(C)CCS(=O)(=O)CC2)nn2ccc(Oc3ncccc3OCC(F)(F)F)cc12 [Example 48, 3-Isopropyl-N-(4-methyl-1,1-dioxidotetrahydro-2H-thiopyran-4-yl)-5-((3-(2,2,2-trifluoroethoxy)pyridin-2-yl)oxy)pyrazolo[1,5-a]pyridine-2-carboxamide] | 46 |
| CC1(NC(=O)c2nn3ccc(Oc4ncccc4OCC(F)(F)F)cc3c2C(F)F)CCS(=O)(=O)CC1 [Example 49, 3-(Difluoromethyl)-N-(4-methyl-1,1-dioxidotetrahydro-2H-thiopyran-4-yl)-5-((3-(2,2,2-trifluoroethoxy)pyridin-2-yl)oxy)pyrazolo[1,5-a]pyridine-2-carboxamide] | 973 |
| CC1(NC(=O)c2nn3ccc(Oc4ncccc4OCC(F)(F)F)cc3c2CO)CCS(=O)(=O)CC1 [Example 50, 3-(Hydroxymethyl)-N-(4-methyl-1,1-dioxidotetrahydro-2H-thiopyran-4-yl)-5-((3-(2,2,2-trifluoroethoxy)pyridin-2-yl)oxy)pyrazolo[1,5-a]pyridine-2-carboxamide] | 10 |
| CC1(NC(=O)c2nn3ccc(Oc4ncccc4OCC(F)(F)F)cc3c2C(F)(F)F)CCS(=O)(=O)CC1 [Example 51, N-(4-Methyl-1,1-dioxidotetrahydro-2H-thiopyran-4-yl)-5-((3-(2,2,2-trifluoroethoxy)pyridin-2-yl)oxy)-3-(trifluoromethyl)pyrazolo[1,5-a]pyridine-2-carboxamide] | 828 |
| CC1(NC(=O)c2nn3ccc(Oc4ncc(F)cc4OCC(F)(F)F)cc3c2C2CC2)CCS(=O)(=O)CC1 [Example 54, 3-cyclopropyl-5-((5-fluoro-3-(2,2,2-trifluoroethoxy)pyridin-2-yl)oxy)-N-(4-methyl-1,1-dioxidotetrahydro-2H-thiopyran-4-yl)pyrazolo[1,5-a]pyridine-2-carboxamide] | 48 |
| CC1(NC(=O)c2nn3ccc(Oc4ncc(F)cc4OCC(F)(F)F)cc3c2N)CCS(=O)(=O)CC1 [Example 55, 3-Amino-5-((5-fluoro-3-(2,2,2-trifluoroethoxy)pyridin-2-yl)oxy)-N-(4-methyl-1,1-dioxidotetrahydro-2H-thiopyran-4-yl)pyrazolo[1,5-a]pyridine-2-carboxamide] | 16 |
| CC1(NC(=O)c2cc3c(F)c(Oc4ncc(F)cc4OCC(F)(F)F)ccn3n2)CCS(=O)(=O)CC1 [Example 56, 4-Fluoro-5-((5-fluoro-3-(2,2,2-trifluoroethoxy)pyridin-2-yl)oxy)-N-(4-methyl-1,1-dioxidotetrahydro-2H-thiopyran-4-yl)pyrazolo[1,5-a]pyridine-2-carboxamide] | 20 |
| Cc1c(Oc2ncc(F)cc2OCC(F)(F)F)ccn2nc(C(=O)NC3(C)CCS(=O)(=O)CC3)cc12 [Example 58, 5-((5-Fluoro-3-(2,2,2-trifluoroethoxy)pyridin-2-yl)oxy)-4-methyl-N-(4-methyl-1,1-dioxidotetrahydro-2H-thiopyran-4-yl)pyrazolo[1,5-a]pyridine-2-carboxamide] | 6.6 |
| Cc1cc(Oc2ncc(F)cc2OCC(F)(F)F)cc2cc(C(=O)NC3(C)CCS(=O)(=O)CC3)nn12 [Example 59, 5-((5-Fluoro-3-(2,2,2-trifluoroethoxy)pyridin-2-yl)oxy)-7-methyl-N-(4-methyl-1,1-dioxidotetrahydro-2H-thiopyran-4-yl)pyrazolo[1,5-a]pyridine-2-carboxamide] | 6 |
| Cc1cn2nc(C(=O)NC3(C)CCS(=O)(=O)CC3)cc2cc1Oc1ncc(F)cc1OCC(F)(F)F [Example 60, 5-((5-Fluoro-3-(2,2,2-trifluoroethoxy)pyridin-2-yl)oxy)-6-methyl-N-(4-methyl-1,1-dioxidotetrahydro-2H-thiopyran-4-yl)pyrazolo[1,5-a]pyridine-2-carboxamide] | 3.5 |
| CC1(NC(=O)c2nn3ccc(Oc4ncc(Cl)cc4OCC(F)F)nc3c2F)CCS(=O)(=O)CC1 [Example 61, 5-((5-Chloro-3-(2,2-difluoroethoxy)pyridin-2-yl)oxy)-3-fluoro-N-(4-methyl-1,1-dioxidotetrahydro-2H-thiopyran-4-yl)pyrazolo[1,5-a]pyrimidine-2-carboxamide] | 133 |
| CC1(NC(=O)c2cc3nc(Oc4ncc(Cl)cc4OCC(F)F)ccn3n2)CCS(=O)(=O)CC1 [Example 62, 5-((5-Chloro-3-(2,2-difluoroethoxy)pyridin-2-yl)oxy)-N-(4-methyl-1,1-dioxidotetrahydro-2H-thiopyran-4-yl)pyrazolo[1,5-a]pyrimidine-2-carboxamide] | 86 |
| CC1(NC(=O)c2nc3cc(Oc4ncc(Cl)cc4OCC(F)(F)F)ccn3n2)CCS(=O)(=O)CC1 [Example 63, 7-((5-Chloro-3-(2,2,2-trifluoroethoxy)pyridin-2-yl)oxy)-N-(4-methyl-1,1-dioxidotetrahydro-2H-thiopyran-4-yl)-[1,2,4]triazolo[1,5-a]pyridine-2-carboxamide] | 349 |
| O=C(NC1(C(F)F)CCS(=O)(=O)CC1)c1nc2cc(Oc3ncc(Cl)cc3OCC(F)(F)F)ccn2n1 [Example 64, 7-((5-Chloro-3-(2,2,2-trifluoroethoxy)pyridin-2-yl)oxy)-N-(4-(difluoromethyl)-1,1-dioxidotetrahydro-2H-thiopyran-4-yl)-[1,2,4]triazolo[1,5-a]pyridine-2-carboxamide] | 165 |
| O=C(NC1(CC(F)(F)F)CCS(=O)(=O)CC1)c1nc2cc(Oc3ncc(Cl)cc3OCC(F)(F)F)ccn2n1 [Example 65, 7-((5-Chloro-3-(2,2,2-trifluoroethoxy)pyridin-2-yl)oxy)-N-(1,1-dioxido-4-(2,2,2-trifluoroethyl)tetrahydro-2H-thiopyran-4-yl)-[1,2,4]triazolo[1,5-a]pyridine-2-carboxamide] | 160 |
| CC1(NC(=O)c2nc3cc(Oc4ncc(Cl)cc4OCC(F)(F)F)ccn3n2)CS(=O)(=O)C1 [Example 66, 7-((5-Chloro-3-(2,2,2-trifluoroethoxy)pyridin-2-yl)oxy)-N-(3-methyl-1,1-dioxidothietan-3-yl)-[1,2,4]triazolo[1,5-a]pyridine-2-carboxamide] | 67 |
| CC1(NC(=O)c2cc3nc(OCc4ncc(Cl)cc4OCC(F)F)ccn3n2)CCS(=O)(=O)CC1 [Example 67, 5-((5-Chloro-3-(2,2-difluoroethoxy)pyridin-2-yl)methoxy)-N-(4-methyl-1,1-dioxidotetrahydro-2H-thiopyran-4-yl)pyrazolo[1,5-a]pyrimidine-2-carboxamide] | 3.3 |
| COc1cccc(COc2ccn3nc(C(=O)NC4(C)CCS(=O)(=O)CC4)cc3n2)n1 [Example 68, 5-((6-Methoxypyridin-2-yl)methoxy)-N-(4-methyl-1,1-dioxidotetrahydro-2H-thiopyran-4-yl)pyrazolo[1,5-a]pyrimidine-2-carboxamide] | > 9990 |
| CCOc1cccc(COc2ccn3nc(C(=O)NC4(C)CCS(=O)(=O)CC4)cc3n2)n1 [Example 69, 5-((6-Ethoxypyridin-2-yl)methoxy)-N-(4-methyl-1,1-dioxidotetrahydro-2H-thiopyran-4-yl)pyrazolo[1,5-a]pyrimidine-2-carboxamide] | 264 |
| COc1ccc(Cl)c(COc2ccn3nc(C(=O)NC4(C)CCS(=O)(=O)CC4)cc3n2)n1 [Example 70, 5-((3-Chloro-6-methoxypyridin-2-yl)methoxy)-N-(4-methyl-1,1-dioxidotetrahydro-2H-thiopyran-4-yl)pyrazolo[1,5-a]pyrimidine-2-carboxamide] | 82 |
